According to patent US20240238287A1, “PHARMACEUTICAL COMPOSITION FOR PREVENTING OR TREATING CANCER” (priority 2021, published 2024):

Columns and labels:
NCIN87 cells = assay: CyQUANT cell proliferation assay, intestinal subtype cell line; assay type: cell-based; settings: DON 1, 50, 150 μM, CB839 1, 5, 25 μM, BPTES 5, 10, 25 μM, FIGS. 5 to 7
Description: (§1) NCIN87, an intestinal subtype cell line, and HS746T, a stem-like subtype cell line, were dispensed in a 96-well plate (black) with 5000 cells each, and replaced with glutamine-deficient culture medium (Gibco) the next day. Then, the cell lines were treated with DON (1 μM, 50 μM, 150 μM; selleckchem, cat no. S8620), CB839 (1 μM, 5 μM, 25 μM; cayman, cat no. S7655) or BPTES (5 μM, 10 μM, 25 μM; MCE, cat no. HY-12683) and the treatment time was 0 hours, and the cell culture medium was discarded at 24, […] and 72 hours, and stored in an ultra-low temperature freezer at −80° C. After culturing the cells stored in this way at room temperature, 200 μl of cell lysate containing GR dye contained in the cell viability assay kit (CyQUANT cell proliferation assay, Invitrogen) was placed in each well of the cultured cells and incubated at room temperature for 5 min. Afterwards, The intensity of fluorescence was measured at a wavelength of 480 nm and 520 nm excitation using a fluorescence photometer (thermo, varioskan flash 3001), and the measured value was standardized to the number of cells at 0 hour, quantified in %, and the value was shown in FIGS. 4 to 7.

HS746T cells [1] = assay: CyQUANT cell proliferation / viability assay, stem-like subtype cell line; assay type: cell-based; settings: for cell proliferation: HS746T, DON 1, 50, 150 μM, CB839 1, 5, 25 μM, BPTES 5, 10, 25 μM, FIGS. 5 to 7; for survival of HS746T, inhibitor with glutamine deficiency vs each alone: Gln(−), PHGDH inhibitor 25 μM, SHMT inhibitor 1 μM, MTHFD2 inhibitor 0.5 μM, FIGS. 9 to 11
Description: as §1
As described in Example 4, after dispensing and incubating the stem-like subtype cell line HS746T, replacing it with a glutamine-deficient culture medium, administering a PHGDH inhibitor (25 μM), SHMT inhibitor (1 μM) or MTHFD2 inhibitor (0.5 μM), and using a cell viability assay kit, the survival rate measured using the cell viability assay kit was shown in FIGS. 9 to 11.

[2] = system: GA077 stem-like subtype organoid; assay: Organoid diameter by optical microscopy; assay type: cell-based; settings: CB839 5 μM alone, D1 to D4, FIG. 8
[3] = system: glutamine-dependent liver cancer cells; settings: cited from earlier work
SEM-type GC cells [4] = assay: Cell death by GLS/PHGDH inhibitor cotreatment and antioxidant rescue; assay type: cell-based; settings: addition of antioxidant
HS746T cells [5] = assay: Ratio of reduced (GSH) to oxidized glutathione (GSSG); assay type: cell-based; settings: HS746T cultured without glutamine plus PHGDH inhibition
HS746T cells [6] = assay: Amount of NADP; assay type: cell-based; settings: PHGDH-inhibited cells with glutamine deficiency
SEM-type GC cells [7] = assay: Mitochondrial ROS estimated by MitoSOX; assay type: cell-based; settings: NCT503 treatment and glutamine starvation

O=C(Cc1ccccc1)Nc1nnc(CCSCCc2nnc(NC(=O)Cc3ccccc3)s2)s1 [BPTES]
cell proliferation (NCIN87 cells): inhibited | cell proliferation (HS746T cells [1]): not reduced

O=C(Cc1cccc(OC(F)(F)F)c1)Nc1ccc(CCCCc2nnc(NC(=O)Cc3ccccn3)s2)nn1 [CB839]
cell proliferation (NCIN87 cells): inhibited | cell proliferation (HS746T cells [1]): not reduced | organoid size (diameter) [2]: not reduced in size | antitumor effect of single-drug treatment [3]: very limited antitumor effect

[N-]=[N+]=CC(=O)CC[C@H](N)C(=O)O [DON]
cell proliferation (NCIN87 cells): inhibited | cell proliferation (HS746T cells [1]): not reduced

Cc1c(N2CCN(C)[C@@H](C)C2)ccc2c3c(c(=O)oc12)CN(C(=O)c1ccc(NS(C)(=O)=O)c(OC(F)(F)F)c1)CC3 [MTHFD2i]
survival of HS746T, inhibitor with glutamine deficiency vs each alone (HS746T cells [1]): significant synergistic effect

CC(=O)N[C@@H](CS)C(=O)O [NAC, N-acetylcysteine]
rescue of cell death induced by cotreatment with CB839 and NCT503 (SEM-type GC cells [4]): partially rescued

Cc1cc(C)nc(NC(=S)N2CCN(Cc3ccc(C(F)(F)F)cc3)CC2)c1 [NCT503]
survival of HS746T, inhibitor with glutamine deficiency vs each alone (HS746T cells [1]): significant synergistic effect | ratio of reduced glutathione (GSH) to oxidized glutathione (GSSG) (HS746T cells [5]): decreased | amount of NADP (HS746T cells [6]): lowest | mitochondrial ROS estimated by MitoSOX (SEM-type GC cells [7]): highest

Cc1n[nH]c2c1C(c1cc(CO)cc(-c3ccccc3)c1)(C(C)C)C(C#N)=C(N)O2 (stereo not drawn) [SHMTi]
survival of HS746T, inhibitor with glutamine deficiency vs each alone (HS746T cells [1]): significant synergistic effect
